PubChem BioAssay (NCI)
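At the GI50, growth is halved. TGI is the concentration that stops growth completely.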

Experiments:
Assay in all cases: NCI-60 cell line screen, 384-well format
A549 NSCLC = test system: A549 NSCLC
BT-549 breast = test system: BT-549 breast
COLO 205 colon = test system: COLO 205 colon
EKVX NSCLC = test system: EKVX NSCLC
HCC-2998 colon = test system: HCC-2998 colon
HL-60(TB) leukemia = test system: HL-60(TB) leukemia
HT29 colon = test system: HT29 colon
IGROV1 ovarian = test system: IGROV1 ovarian
KM12 colon = test system: KM12 colon
RPMI-8226 leukemia = test system: RPMI-8226 leukemia
SF-268 CNS = test system: SF-268 CNS
SF-539 CNS = test system: SF-539 CNS
SK-MEL-5 melanoma = test system: SK-MEL-5 melanoma

CNC(=O)c1cc(Oc2ccc(NC(=O)Nc3ccc(Cl)c(C(F)(F)F)c3)cc2)ccn1
GI50 (A549 NSCLC): 2950 nM | TGI (A549 NSCLC): 8890 nM | GI50 (BT-549 breast): 2290 nM | TGI (BT-549 breast): 4040 nM | GI50 (COLO 205 colon): 2190 nM | TGI (COLO 205 colon): 4660 nM | GI50 (EKVX NSCLC): 2900 nM | TGI (EKVX NSCLC): 6800 nM | GI50 (HCC-2998 colon): 2130 nM | TGI (HCC-2998 colon): 3860 nM | GI50 (HL-60(TB) leukemia): 892 nM | TGI (HL-60(TB) leukemia): 2040 nM | GI50 (HT29 colon): 2350 nM | TGI (HT29 colon): 5960 nM | GI50 (IGROV1 ovarian): 2460 nM | TGI (IGROV1 ovarian): 5910 nM | GI50 (KM12 colon): 413 nM | TGI (KM12 colon): 2320 nM | GI50 (RPMI-8226 leukemia): 1480 nM | TGI (RPMI-8226 leukemia): 2820 nM | GI50 (SF-268 CNS): 2220 nM | TGI (SF-268 CNS): 4710 nM | GI50 (SF-539 CNS): 1690 nM | TGI (SF-539 CNS): 3540 nM | GI50 (SK-MEL-5 melanoma): 842 nM | TGI (SK-MEL-5 melanoma): 2440 nM
